{"source": "patent US10010560B2", "about": "“Small molecule HSP70 inhibitors” (THE TRUSTEES OF THE UNIVERSITY OF PENNSYLVANIA, priority 2014, dated 2018)", "key": {"tumor cells": {"test_system": "tumor cells", "test": "Electron microscopy analysis of treated tumor cells", "format": "cell-based", "text": "FIGS. 4A-4L illustrate that PET-16 impairs proteostasis. […] There is a general absence of obvious nuclei in PET-16 treated tumor cells. […] FIGS. 4D and 4E are gels of whole-cell extracts (WCE) prepared from human melanoma A875 (D) or 451 Lu (E) cells treated with DMSO, PES or PET-16 that were immunoprecipitated using an anti-HSP70 antibody. The excised band of about 70 kDa shown in the Coomassie gel is HSP70, as confirmed by liquid chromatography—tandem mass spectrometry analysis. FIGS. 4F-4I are western blots of cell lines were treated with DMSO, PES or PET-16 for 24 h and immunoblotted for the indicated proteins. FIG. 4J are western blots of indicated melanomas pretreated with DMSO, PES or PET-16, followed by treatment with IL-6. Cell extracts were immunoblotted for the proteins indicated. Inhibition of IL-6 induced STAT3 and STAT1 phosphorylation by PET-16. FIG. 4K is a western blot analysis indicating altered processing of cathepsin L from the larger precursor form to the smaller mature form in the indicated cells following PET-16 treatment for 24 h. FIG. 4L is a western blot of the human melanoma 451 Lu cells treated with DMSO, PES or PET-16 for 24 h. Cells were harvested in 1% NP40-containing lysis buffer, fractionated into detergent-soluble and detergent-insoluble preparations, and assayed by western blot for ubiquitin. […]"}, "[1]": {"test_system": "primary melanocytes and nontransformed human fibroblasts (IMR90)", "test": "Cellular ATP levels (AlamarBlue assay) in normal cells", "format": "cell-based", "text": "FIGS. 5A-5F illustrates that PET-16 leads to loss of mitochondrial protein Cyclophilin D and impairs bioenergetics in tumor cells. FIGS. 5A-5D are western blots of HSP70, which is present at mitochondria of tumor H1299 cells but not in normal tissue, such as liver. The constitutively expressed 70 kDa family members, HSC70 and GRP75, are present in mitochondria of normal cells. Equal amounts of whole cell (WC)-, cytosolic (cyto)-, and mitochondrial (mito)-extracts prepared from cell lines H1299 (A, C) and MIA PaCa-2 (B) or normal (liver) cells (C, D) were examined by western blot analysis for the presence of the proteins indicated. […] Decreases of AlamarBlue® fluorescence, indicative of mitochondrial damage, are noted in PET-16-treated tumor cells (melanoma tumor cell line WM88 (-), melanoma tumor cell line WM3000 (×), melanoma tumor cell line WM852 (*), human melanoma 451 Lu cells (●), and melanoma tumor cell line WM989 (|), but not normal cells (nontransformed human fibroblasts (IMR90-♦) and primary melanocytes (▪)). Values are normalized to the vehicle-treated cells. Error bars represent standard deviation (s.d.) of four independent experiments."}, "[2]": {"test_system": "mouse melanoma cell line B16", "test": "Pulmonary metastatic model, B16 melanoma", "format": "in vivo", "conditions": "C57BL/6 mice injected with B16", "description": "FIGS. 7A-7C illustrate that PET-16 impairs metastasis in a mouse model of melanoma. A well-recognized pulmonary metastatic model was utilized in which immunocompetent, wild-type C57BL/6 mice were injected with the highly metastatic mouse melanoma cell line B16, as indicated. […] FIG. 7A is a summary of the steps entailed in the model. FIG. 7B are photographs of biopsied lungs obtained from the infected mice. FIG. 7C provides a graphical representation of counts of metastatic colonies intermediate gray square represents 0 colonies, lightest gray square represents 1-10 colonies and darkest gray square represents >10 colonies) seen in lungs of vehicle-, PES-Cl- or PET-16-treated mice.\nThe inhibitory effect of PET-16 on metastasis was tested in vivo, a well-recognized pulmonary metastatic model was utilized in which immunocompetent, wild-type C57BL/6 mice were injected with the highly metastatic mouse melanoma cell line B16 (FIG. 7)."}}, "data": [{"smiles": "C(#C[P+](c1ccccc1)(c1ccccc1)c1ccccc1)c1ccccc1.[Br-]", "note": "[PET-16, triphenyl(phenylethynyl)phosphonium bromide]", "values": [{"measurement": "autophagy and proteostasis by EM", "setting": "tumor cells", "value": "altered autophagy and impaired proteostasis"}, {"measurement": "total ATP levels", "setting": "[1]", "value": "no decrease"}, {"measurement": "lung metastases", "setting": "[2]", "value": "significantly reduced"}]}]}
